US20260022142A1, “MACROCYCLIC IMMUNOMODULATORS” (Bristol-Myers Squibb Company, priority 2022, published 2026)
Numbered stars: 1 amine (or outer) side, 2 acyl side, 3 side chain; on linkers, the order of the positions; unused ones are H or OH. Bridge positions count the residues as written; N and C are the ends. Square brackets hold non-standard residues; d marks the D form. Peptide text beside a SMILES is read from it. * marks the point of attachment. ξ: configuration not given here. Phe(3-CF3) = N[C@@H](Cc1cccc(C(F)(F)F)c1)C(=O)O; Ala(morpholin-4-yl) = N[C@@H](CN1CCOCC1)C(=O)O; Phe(4-CONH2) = NC(=O)c1ccc(C[C@H](N)C(=O)O)cc1; Phe(4-COOH) = N[C@@H](Cc1ccc(C(=O)O)cc1)C(=O)O; Bip = N[C@@H](Cc1ccc(-c2ccccc2)cc1)C(=O)O; NH(CH2)14COOH = O=C(O)CCCCCCCCCCCCCCN*; Phe(3-Me) = Cc1cccc(C[C@H](N)C(=O)O)c1; βAsp = O=C(O)[C@H](CC(=O)[*:2])N[*:1]; NH(CH2)12COOH = O=C(O)CCCCCCCCCCCCN*; Val(3-OH) = CC(C)(O)[C@H](N)C(=O)O; X17 = O=C(C(CN1CCOCC1)N[*:1])[*:2]; 4Pal = N[C@@H](Cc1ccncc1)C(=O)O; Cha = N[C@@H](CC1CCCCC1)C(=O)O; Carboxymethyl = O=C(O)C*; Orn = NCCC[C@H](N)C(=O)O; Aun = NCCCCCCCCCCC(=O)O; Dab = NCC[C@H](N)C(=O)O; Dap = NC[C@H](N)C(=O)O; AEEA = NCCOCCOCC(=O)O; ξC = NC(CS)C(=O)O

What follows are compounds tested against T1, PD-1/PD-L1 interaction (PE-labeled human PD-L1-Ig binding to Jurkat cell line over-expressing human PD-1) (Homo sapiens, UniProt Q15116) (assay: Jurkat-PD-1 Cell Binding High-Content Screening Assay (CBA)). Details: Jurkat cell line over-expressing human PD-1; PE-labeled PD-L1-Ig 20 nM final; read-out: Jurkat hPD1-PDL1 IC50.
T1 construct: expressed in transfected cells; host or cells: Jurkat
T1 sequence (Q15116 25-288): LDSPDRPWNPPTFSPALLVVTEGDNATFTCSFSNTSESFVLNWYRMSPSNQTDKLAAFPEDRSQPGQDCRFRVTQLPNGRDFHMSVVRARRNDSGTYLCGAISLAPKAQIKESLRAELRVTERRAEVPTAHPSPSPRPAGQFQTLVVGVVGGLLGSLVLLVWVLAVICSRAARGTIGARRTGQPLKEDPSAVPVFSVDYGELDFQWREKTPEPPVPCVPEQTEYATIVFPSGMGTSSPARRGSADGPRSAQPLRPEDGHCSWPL
Type: cell-based
How it was run: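 Jurkat cells over-expressing human PD-1 (8×10^3 per well, DMEM/10% FCS) preincubated with compound 2 h at 37° C, then PE-labeled human PD-L1-Ig (20 nM final) added for 1 h. Cells fixed with paraformaldehyde, Hoechst-stained, and bound fluorescence quantified by high-content imaging.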

Compound | IC50
Cc1cccc(C[C@@H]2NC(=O)[C@H](CC(=O)O)NC(=O)[C@H](Cc3ccc(OCC(=O)O)cc3)NC(=O)[C@H](CN)NC(=O)CSC[C@@H](C(=O)N[C@@H](CCN)C(=O)NCCCCCCCCCCC(=O)O)NC(=O)[C@H](CCC(N)=O)NC(=O)[C@H](C(C)C)NC(=O)[C@H](CC3CCCCC3)NC(=O)[C@H](CCN)NC(=O)[C@@H](CC(C)C)NC(=O)[C@H](CCCN)NC(=O)[C@H](Cc3ccc(O)cc3)NC(=O)[C@H](Cc3ccc(-c4ccccc4)cc3)NC(=O)[C@H](Cc3ccc(O)cc3)NC2=O)c1 [Compound 2713] ({CH2CO}-[Dap]Y(Carboxymethyl)D[Phe(3-Me)]Y[Bip]Y[Orn][dL][Dab][Cha]VQC[Dab][Aun]-OH; thioether N-14) | 7.7 nM
CC(C)C[C@H]1NC(=O)[C@H](CCCN)NC(=O)[C@H](Cc2ccc(O)cc2)NC(=O)[C@H](Cc2ccc(-c3ccccc3)cc2)NC(=O)[C@H](C(C)C)NC(=O)[C@H](Cc2c[nH]c3ccccc23)NC(=O)[C@H](CC(=O)O)NC(=O)[C@H](Cc2ccc(OCC(=O)O)cc2)NC(=O)[C@H](Cc2ccncc2)NC(=O)CSC[C@@H](C(=O)N[C@@H](CCN)C(=O)NCCCCCCCCCCC(=O)O)NC(=O)[C@H]([C@@H](C)O)NC(=O)[C@H](C(C)C)NC(=O)[C@H](CC2CCCCC2)NC(=O)[C@H](CCN)NC1=O [Compound 2741] ({CH2CO}-[4Pal]Y(Carboxymethyl)DWV[Bip]Y[Orn][dL][Dab][Cha]VTC[Dab][Aun]-OH; thioether N-14) | 54.3 nM
Cc1cccc(C[C@@H]2NC(=O)[C@H](CC(=O)O)NC(=O)[C@H](Cc3ccc(OCC(=O)O)cc3)NC(=O)[C@H]([C@@H](C)O)NC(=O)CSC[C@@H](C(=O)N[C@@H](CCN)C(=O)NCCCCCCCCCCC(=O)O)NC(=O)[C@H](CO)NC(=O)[C@H](C(C)C)NC(=O)[C@H](CC3CCCCC3)NC(=O)[C@H](CCN)NC(=O)[C@@H](CC(C)C)NC(=O)[C@H](CCCN)NC(=O)[C@H](Cc3ccc(OCC(=O)O)cc3)NC(=O)[C@H](Cc3ccc(-c4ccccc4)cc3)NC(=O)[C@H](Cc3ccc(O)cc3)NC2=O)c1 [Compound 2093] ({CH2CO}-TY(Carboxymethyl)D[Phe(3-Me)]Y[Bip]Y(Carboxymethyl)[Orn][dL][Dab][Cha]VSC[Dab][Aun]-OH; thioether N-14) | 23.2 nM
CC(C)C[C@H]1NC(=O)[C@H](CCCN)NC(=O)[C@H](C(C)C)NC(=O)[C@H](Cc2ccc(-c3ccccc3)cc2)NC(=O)[C@H](C(C)C)NC(=O)[C@H](Cc2c[nH]c3ccccc23)NC(=O)[C@H](CC(=O)O)NC(=O)[C@H](Cc2ccc(OCC(=O)O)cc2)NC(=O)[C@H](CN)NC(=O)CSCC(C(=O)N[C@H](CO)C(=O)NCCCCCCCCCCC(=O)O)NC(=O)[C@H]([C@@H](C)O)NC(=O)[C@H](C(C)C)NC(=O)[C@H](CC2CCCCC2)NC(=O)[C@H](Cc2cnc[nH]2)NC1=O (stereo partly drawn) [Compound 1123] ({CH2CO}-[Dap]Y(Carboxymethyl)DWV[Bip]V[Orn][dL]H[Cha]VT[ξC][dS][Aun]-OH; thioether N-14) | 48.4 nM
CC(C)C[C@H]1NC(=O)[C@H](CCCN)NC(=O)[C@H](Cc2ccc(C(=O)O)cc2)NC(=O)[C@H](Cc2ccc(-c3ccccc3)cc2)NC(=O)[C@H](Cc2ccc(C(=O)O)cc2)NC(=O)[C@H](Cc2cccc(C(F)(F)F)c2)NC(=O)[C@H](CC(=O)O)NC(=O)[C@H](Cc2ccc(OCC(=O)O)cc2)NC(=O)[C@H](CN2CCOCC2)NC(=O)CSC[C@@H](C(=O)N[C@@H](CCN)C(=O)NCCOCCOCC(=O)N[C@@H](CC(=O)NCCOCCOCC(=O)NCCCCCCCCCCCCC(=O)O)C(=O)O)NC(=O)[C@H](CO)NC(=O)[C@H](C(C)(C)O)NC(=O)[C@H](CC2CCCCC2)NC(=O)[C@H](CCN)NC1=O [Compound 2941] ({CH2CO}-[Ala(morpholin-4-yl)]Y(Carboxymethyl)D[Phe(3-CF3)][Phe(4-COOH)][Bip][Phe(4-COOH)][Orn][dL][Dab][Cha][Val(3-OH)]SC[Dab][AEEA][βAsp][AEEA]-{NH(CH2)12COOH}; thioether N-14) | 27.8 nM
Cc1cccc(C[C@@H]2NC(=O)[C@H](CC(=O)O)NC(=O)[C@H](Cc3ccc(OCC(=O)O)cc3)NC(=O)C(CN3CCOCC3)NC(=O)CSC[C@@H](C(=O)N[C@@H](CCN)C(=O)NCCCCCCCCCCCCC(=O)O)NC(=O)[C@H](CO)NC(=O)[C@H](C(C)(C)O)NC(=O)[C@H](CC3CCCCC3)NC(=O)[C@H](CCN)NC(=O)[C@@H](CC(C)C)NC(=O)[C@H](CCCN)NC(=O)[C@H](Cc3ccc(OCC(=O)O)cc3)NC(=O)[C@H](Cc3ccc(-c4ccccc4)cc3)NC(=O)[C@H](Cc3ccc(OCC(=O)O)cc3)NC2=O)c1 (stereo partly drawn) [Compound 2260] ({CH2CO}-[X17]Y(Carboxymethyl)D[Phe(3-Me)]Y(Carboxymethyl)[Bip]Y(Carboxymethyl)[Orn][dL][Dab][Cha][Val(3-OH)]SC[Dab]-{NH(CH2)12COOH}; thioether N-14) | 9.4 nM
Cc1cccc(C[C@@H]2NC(=O)[C@H](CC(=O)O)NC(=O)[C@H](Cc3ccc(OCC(=O)O)cc3)NC(=O)[C@H](CN3CCOCC3)NC(=O)CSC[C@@H](C(=O)N[C@@H](CCN)C(=O)NCCCCCCCCCCC(=O)O)NC(=O)[C@H](CCCCN)NC(=O)[C@H](C(C)C)NC(=O)[C@H](CC3CCCCC3)NC(=O)[C@H](CCN)NC(=O)[C@@H](CC(C)C)NC(=O)[C@H](CCCN)NC(=O)[C@H](C(C)C)NC(=O)[C@H](Cc3ccc(-c4ccccc4)cc3)NC(=O)[C@H](C(C)C)NC2=O)c1 [Compound 2039] ({CH2CO}-[Ala(morpholin-4-yl)]Y(Carboxymethyl)D[Phe(3-Me)]V[Bip]V[Orn][dL][Dab][Cha]VKC[Dab][Aun]-OH; thioether N-14) | 19.4 nM
Cc1cccc(C[C@@H]2NC(=O)[C@H](CC(=O)O)NC(=O)[C@H](Cc3ccc(OCC(=O)O)cc3)NC(=O)[C@H](CN)NC(=O)CSC[C@@H](C(=O)N[C@@H](CCN)C(=O)NCCCCCCCCCCC(=O)O)NC(=O)[C@H]([C@@H](C)O)NC(=O)[C@H](C(C)C)NC(=O)[C@H](CC3CCCCC3)NC(=O)[C@H](CCN)NC(=O)[C@@H](CC(C)C)NC(=O)[C@H](CCCN)NC(=O)[C@H](Cc3ccc(OCC(=O)O)cc3)NC(=O)[C@H](Cc3ccc(-c4ccccc4)cc3)NC(=O)[C@H](C(C)C)NC2=O)c1 [Compound 2731] ({CH2CO}-[Dap]Y(Carboxymethyl)D[Phe(3-Me)]V[Bip]Y(Carboxymethyl)[Orn][dL][Dab][Cha]VTC[Dab][Aun]-OH; thioether N-14) | 18.6 nM

Now from value to compound:

IC50 | Compound
6.9 nM | Cc1cccc(C[C@@H]2NC(=O)[C@H](CC(=O)O)NC(=O)[C@H](Cc3ccc(OCC(=O)O)cc3)NC(=O)[C@H](CCN)NC(=O)CSC[C@@H](C(=O)N[C@@H](CCN)C(=O)NCCOCCOCC(=O)NCCOCCOCC(=O)NCCCCCCCCCCCCC(=O)O)NC(=O)[C@H](CO)NC(=O)[C@H](C(C)(C)O)NC(=O)[C@H](CC3CCCCC3)NC(=O)[C@H](CCN)NC(=O)[C@@H](CC(C)C)NC(=O)[C@H](CCCN)NC(=O)[C@H](Cc3ccc(OCC(=O)O)cc3)NC(=O)[C@H](Cc3ccc(-c4ccccc4)cc3)NC(=O)[C@H](Cc3ccc(OCC(=O)O)cc3)NC2=O)c1 [Compound 3813] ({CH2CO}-[Dab]Y(Carboxymethyl)D[Phe(3-Me)]Y(Carboxymethyl)[Bip]Y(Carboxymethyl)[Orn][dL][Dab][Cha][Val(3-OH)]SC[Dab][AEEA][AEEA]-{NH(CH2)12COOH}; thioether N-14)
26.6 nM | Cc1cccc(C[C@@H]2NC(=O)[C@H](CC(=O)O)NC(=O)[C@H](Cc3ccc(C(=O)O)cc3)NC(=O)[C@H](Cc3ccncc3)NC(=O)CSC[C@@H](C(=O)N[C@@H](CCN)C(=O)NCCOCCOCC(=O)NCCCCCCCCCCC(=O)O)NC(=O)[C@H](CO)NC(=O)[C@H](C(C)(C)O)NC(=O)[C@H](CC3CCCCC3)NC(=O)[C@H](CCN)NC(=O)[C@@H](CC(C)C)NC(=O)[C@H](CCCN)NC(=O)[C@H](CCC(N)=O)NC(=O)[C@H](Cc3ccc(-c4ccccc4)cc3)NC(=O)[C@H](Cc3ccc(C(N)=O)cc3)NC2=O)c1 [Compound 3778] ({CH2CO}-[4Pal][Phe(4-COOH)]D[Phe(3-Me)][Phe(4-CONH2)][Bip]Q[Orn][dL][Dab][Cha][Val(3-OH)]SC[Dab][AEEA][Aun]-OH; thioether N-14)
16.6 nM | Cc1cccc(C[C@@H]2NC(=O)[C@H](CC(=O)O)NC(=O)[C@H](Cc3ccc(OCC(=O)O)cc3)NC(=O)[C@H](Cc3ccncc3)NC(=O)CSC[C@@H](C(=O)N[C@@H](CCN)C(=O)NCCOCCOCC(=O)NCCCCCCCCCCC(=O)O)NC(=O)[C@H](CCC(=O)O)NC(=O)[C@H](C(C)(C)O)NC(=O)[C@H](CC3CCCCC3)NC(=O)[C@H](CCN)NC(=O)[C@@H](CC(C)C)NC(=O)[C@H](CCCN)NC(=O)[C@H](Cc3ccc(C(=O)O)cc3)NC(=O)[C@H](Cc3ccc(-c4ccccc4)cc3)NC(=O)[C@H](Cc3ccc(C(=O)O)cc3)NC2=O)c1 [Compound 3744] ({CH2CO}-[4Pal]Y(Carboxymethyl)D[Phe(3-Me)][Phe(4-COOH)][Bip][Phe(4-COOH)][Orn][dL][Dab][Cha][Val(3-OH)]EC[Dab][AEEA][Aun]-OH; thioether N-14)
272 nM | CC(C)C[C@H]1NC(=O)[C@H](CCCN)NC(=O)[C@H](Cc2ccc(C(=O)O)cc2)NC(=O)[C@H](Cc2ccc(-c3ccccc3)cc2)NC(=O)[C@H](Cc2ccc(C(=O)O)cc2)NC(=O)[C@H](Cc2cccc(C(F)(F)F)c2)NC(=O)[C@H](CC(=O)O)NC(=O)[C@H](Cc2ccc(OCC(=O)O)cc2)NC(=O)[C@H](Cc2cnc[nH]2)NC(=O)CSC[C@@H](C(=O)N[C@@H](CCN)C(=O)NCCOCCOCC(=O)N[C@@H](CC(=O)N[C@@H](CC(=O)O)C(=O)NCCCCCCCCCCCCCCC(=O)O)C(=O)O)NC(=O)[C@H](CCC(=O)O)NC(=O)[C@H](C(C)(C)O)NC(=O)[C@H](CC2CCCCC2)NC(=O)[C@H](CCN)NC1=O [Compound 3889] ({CH2CO}-HY(Carboxymethyl)D[Phe(3-CF3)][Phe(4-COOH)][Bip][Phe(4-COOH)][Orn][dL][Dab][Cha][Val(3-OH)]EC[Dab][AEEA][βAsp]D-{NH(CH2)14COOH}; thioether N-14)
